Source: publication PMC5893132, “Selective inhibition of histamine-evoked Ca^2+ signals by compartmentalized cAMP in human bronchial airway smooth muscle cells” (Cell Calcium, 2018)
Where a name gives a salt, the structure may show the parent alone. No end group written: not given here. *: point of attachment. Myristoyl = CCCCCCCCCCCCCC(=O)*

Columns and labels:
Format in all cases: cell-based, human
[1] = test system: histamine-evoked Ca^2+ signals in hBASMCs; test: Histamine-evoked Ca2+ signals in populations of fluo-4-loaded hBASMCs; details: for effect on the inhibition of histamine-evoked Ca2+ signals by a maximally effective concentration of isoproterenol / effect on the sensitivity to isoproterenol of histamine-evoked Ca2+ signals: inhibitor pre-treatment 30 min, then isoproterenol 1 min; for effect on histamine-evoked Ca2+ signals: pre-treatment: 8-Br-cGMP, IBMX 20 min, forskolin 10 μM, NKH477 10 μM, butaprost 10 μM, TCS2510 1 μM 5 min
Procedure: (§1) Two methods were used to measure [Ca^2+]i in populations of hBASMCs. For measurements using a FlexStation III plate-reader (Molecular Devices, Sunnyvale, CA, USA), hBASMCs were seeded into 96-well plates (10^4 cells per well). After about 4 days, when the cells were confluent, the medium was replaced with SMGM-2 without serum or growth factor supplements, and the cells were used after a further 24 h. This period in serum-free medium increased by about 2-fold the amplitude of the increases in [Ca^2+]i evoked by histamine (results not shown). Cells were washed with HEPES-buffered saline (HBS: 135 mM NaCl, 5.9 mM KCl, 1.2 mM MgCl2, 1.5 mM CaCl2, 11.6 mM HEPES, 11.5 mM D-glucose, pH 7.3), and loaded with fluo-4 by incubation with fluo-4-AM (2 μM) in HBS (100 μL per well) containing pluronic F127 (0.02%, v/v) and probenecid (2.5 mM). After 1 h at 20 °C, the medium was replaced with HBS (100 μL per well) containing probenecid (2.5 mM). After a further incubation at 20 °C for 1 h, the medium was replaced with HBS (60–80 μL per well) or nominally Ca^2+-free HBS, and the cells were used immediately for experiments at 20 °C. In some experiments, BAPTA (2.5 mM) was added to HBS during the recording; this reduced the free [Ca^2+] of the HBS to ∼120 nM without affecting the pH. Drug additions (20 μL at 4 or 5 times the final concentration) were added automatically. Fluorescence from fluo-4 (excitation 485 nm, emission 525 nm) was recorded at 1.44-s intervals using Softmax Pro 5.4 (Molecular Devices). Fluorescence was calibrated to [Ca^2+]i from: [Ca^2+]i=KDCa×(F−Fmin/Fmax−F) where, KDCa is the equilibrium dissociation constant of fluo-4 for Ca^2+ (345 nM), F is the recorded fluorescence, and Fmin and Fmax are the fluorescence values recorded after addition of triton-X-100 (0.1%, v/v) with either BAPTA (10 mM, Fmin) or CaCl2 (10 mM, Fmax). Although treatment with triton-X-100 releases fluo-4 from cells into the medium, the fluo-4 fluorescence is captured with the same efficiency whether it is trapped within cells or dispersed within the small volume of the wells (unpublished observations). Fmax was determined for each well at the end of an experiment, and the average value was used for each column of 8 wells. Fmin was determined from parallel wells on each plate.
(§2) For measurements of [Ca^2+]i using an FDSS 7000 FLIPR (Hamamatsu), hBASMCs were seeded into 384-well plates (8000 cells per well) in 20 μL of SMGM-2 containing 5% serum. After 24 h, the medium was replaced with 15 μL of serum-free SMGM-2, and after a further 6 h the cells were loaded with Ca^2+ indicator by addition of FLIPR calcium 4 assay kit (Molecular Devices) supplemented with probenecid (2.5 mM). The exact composition of this ‘no-wash’ indicator kit is not disclosed by the manufacturer, but it contains fluo-4-AM and components that reduce background fluorescence. The manufacture’s stock solution was diluted 10-fold into HBSS containing BSA (0.1%, w/v) and HEPES (20 mM); 5 μL of this solution was then added to each well (containing 15 μL of serum-free SMGM-2). After 2 h at 37 °C in humidified air containing 5% CO2, the plate was used for experiments at 20 °C. Most additions (5 μL) were prepared in HBSS supplemented with HEPES (20 mM) and BSA (0.1%, w/v). For more prolonged incubations, drugs were diluted in the initial loading medium (to avoid changes in dye-loading during the ‘no wash’ protocol). Fluorescence signals (excitation at 480 nm, emission at 540 nm) were calibrated to [Ca^2+]i after measurement of Fmin and Fmax uniquely for each well, using a KDCa = 345 nM.
(§3) All concentration-effect relationships were determined by addition of different drug concentrations to individual wells in the same multi-well plate, rather than by sequential additions to the same well. […]

[2] = test system: hBASMCs; test: Increase in [Ca2+]i evoked directly by stimuli in fluo-4-loaded hBASMCs; details: for effect of removal of extracellular Ca2+ on the peak increase in [Ca2+]i evoked by the stimulus: HBS vs Ca2+-free HBS (2.5 mM BAPTA added 37 s before the stimulus); for increase in [Ca2+]i evoked by the substance itself: hBASMCs from donors 1-3, PGE2 and sulprostone in Ca2+-free HBS
Procedure: as §1, §2, §3

[3] = test system: intracellular cAMP in hBASMCs; test: Intracellular cAMP in hBASMCs by [3H]-adenine labeling; details: 5 min in HBS, TCS2510 1 μM; for effect on intracellular cAMP: PGE2 10 μM, butaprost 10 μM, [3H]-adenine labeling
Procedure: hBASMCs in 24-well plates (50,000 cells per well) were grown to confluence. The medium was then replaced with serum-free SMGM-2, and after 24 h this was supplemented with [^3H]-adenine (1 μCi per well, 18.4 Ci·mmol^−1). After 2 h at 37 °C in humidified air with 5% CO2, the medium was removed, and the cells were washed twice with HBS. The cells were stimulated at 20 °C in HBS. Incubations were terminated by removal of the medium, addition of ice-cold trichloroacetic acid (5%, 1 mL) and rapid freezing. This protocol ensured that only intracellular [^3H]-cAMP was detected. [^3H]-adenine nucleotides were separated by column chromatography, and the activity was determined by liquid scintillation counting using Ultra-gold scintillant. Results are presented as [^3H]-cAMP activity as a percentage of the sum of the activities of the fractions containing [^3H]-cAMP, [^3H]-ATP, [^3H]-ADP and [^3H]-AMP; henceforth, reported as [^3H]-cAMP (%).

## Cc1ccc(S(=O)(=O)c2c(C)cc(C)cc2C)cc1 [ESI-05, 4-methylphenyl-2,4,6-trimethylsulphone]
[1]; ESI-05 25 μM, 30 min in HBS, histamine 10 μM added 1 min after isoproterenol, n = 9
  effect on the concentration-dependent inhibition of histamine-evoked Ca2+ signals by isoproterenol: had no effect

## NCCc1c[nH]cn1 [histamine, Histamine dihydrochloride]
[2]
  effect of removal of extracellular Ca2+ on the peak increase in [Ca2+]i evoked by the stimulus: unaffected
  increase in [Ca2+]i evoked by the substance itself: Cells from all three donors responded
[2]; Homo sapiens, histamine alone, HBSS, n = 7, read-out: sensitivity to histamine (pEC50) (converted)
  EC50: 1050 nM
[2]; histamine alone, HBSS, n = 7
  maximal amplitude of the peak increase in [Ca2+]i evoked by histamine: 242 ± 15 nM

## O=C(Nc1ncnc2c1ncn2[C@@H]1O[C@@H]2COP(=O)(O)OC2C1O)c1ccccc1 (stereo in doubt) [6-Bnz-cAMP]
[1]; 500 μM, 20 min pre-treatment, histamine 10 μM, n = 5
  amplitude of the Ca2+ signals evoked by histamine, % of paired controls: 54 ± 4%

## CO[C@@H]1[C@@H]2OP(=O)(O)OC[C@H]2O[C@H]1n1c(Sc2ccc(Cl)cc2)nc2c(N)ncnc21 [8-pCPT-2′-O-Me-cAMP]
[1]; 300 μM pre-treatment, histamine 10 μM
  amplitude of the Ca2+ signals evoked by histamine, % of paired controls: 103 ± 8%

## 18:1 lysophosphatidic acid [LPA]
[2]
  increase in [Ca2+]i evoked by the substance itself: Cells from all three donors responded

## Nc1ncnc2c1ncn2[C@@H]1O[C@H](COP(=O)(O)OP(=O)(O)OP(=O)(O)O)[C@@H](O)[C@H]1O [ATP]
[2]
  increase in [Ca2+]i evoked by the substance itself: cells from only one donor responded robustly to ATP (donor 3)

## bradykinin acetate (RPPGFSPFR; also: acetate salt; UniProt P01042 381-389, looked up)
[2]
  effect of removal of extracellular Ca2+ on the peak increase in [Ca2+]i evoked by the stimulus: unaffected
  increase in [Ca2+]i evoked by the substance itself: Cells from all three donors responded

## myristoylated protein kinase inhibitor 14–22 amide (Myristoyl-SGRTGRRNA-NH2; SMILES CCCCCCCCCCCCCC(=O)N[C@@H](CO)C(=O)NCC(=O)N[C@@H](CCCNC(=N)N)C(=O)N[C@H](C(=O)NCC(=O)N[C@@H](CCCNC(=N)N)C(=O)N[C@@H](CCCNC(=N)N)C(=O)N[C@@H](CC(N)=O)C(=O)N[C@@H](C)C(N)=O)[C@@H](C)O; UniProt P61925 14-22, looked up, fragment) [PKI-myr]
[1]; histamine 10 μM, n = 9
  effect on the inhibition of histamine-evoked Ca2+ signals by a maximally effective concentration of isoproterenol: had no significant effect
  effect on the sensitivity to isoproterenol of histamine-evoked Ca2+ signals: Neither KT5720 nor PKI-myr significantly affected

## CCCCCCOC(=O)[C@]1(O)C[C@@H]2O[C@@]1(C)n1c3ccccc3c3c4c(c5c6ccccc6n2c5c31)C(=O)NC4 [KT5720, (9R,10S,12S)-2,3,9,10,11,12-hexahydro-10-hydroxy-9-methyl-1-oxo-9,12-epoxy-1H-diindolo[1,2,3-fg:3′,2′,1′-kl]pyrrolo[3,4-i][1,6]benzodiazocine-10-carboxylic acid, hexyl ester]
[1]; histamine 10 μM, n = 9
  effect on the inhibition of histamine-evoked Ca2+ signals by a maximally effective concentration of isoproterenol: had no significant effect
  effect on the sensitivity to isoproterenol of histamine-evoked Ca2+ signals: Neither KT5720 nor PKI-myr significantly affected

## O=C1CC[C@H](C=C[C@@H](O)Cc2ccccc2)N1CCCCCCc1nn[nH]n1 [TCS2510, (5R)-5-[(3S)-3-hydroxy-4-phenyl-1-buten-1-yl]-1-[6-(2H-tetrazol-5-yl)hexyl]-2-pyrrolidinone]
[1]
  effect on histamine-evoked Ca2+ signals: inhibited the Ca^2+ signals evoked by histamine
[2]
  increase in [Ca2+]i evoked by the substance itself: Neither butaprost nor TCS2510 evoked an increase in [Ca^2+]i
[3]
  effect on intracellular cAMP: stimulated formation of cAMP
[3]; equally effective in inhibiting histamine-evoked Ca2+ signals
  production of cAMP at maximal concentration compared with forskolin, NKH477, isoproterenol or butaprost: far less

## CCCCC[C@H](O)/C=C/[C@H]1[C@H](O)CC(=O)[C@@H]1C/C=C\CCCC(=O)O [PGE2, prostaglandin E2]
[2]
  increase in [Ca2+]i evoked by the substance itself: directly evoked a significant increase in [Ca^2+]i
[3]
  effect on intracellular cAMP: stimulated cAMP accumulation

## Nc1ncnc2c1nc(Sc1ccc(Cl)cc1)n2[C@@H]1O[C@@H]2COP(O)(=S)O[C@H]2[C@H]1O (stereo partly shown) [Rp-8-CPT-cAMPS, Rp-8-CPT-cAMPs]
[1]; histamine 10 μM, n = 9
  effect on the inhibition of histamine-evoked Ca2+ signals by a maximally effective concentration of isoproterenol: had no significant effect
  effect on the sensitivity to isoproterenol of histamine-evoked Ca2+ signals: significant decrease in the sensitivity to isoproterenol, but the effect was small

## C[N+](C)(C)CCOC(N)=O [carbachol, carbamylcholine chloride]
[2]
  effect of removal of extracellular Ca2+ on the peak increase in [Ca2+]i evoked by the stimulus: unaffected
  increase in [Ca2+]i evoked by the substance itself: cells from only one other donor responded robustly to carbachol (donor 2)

## C=C[C@@]1(C)CC(=O)[C@]2(O)[C@@]3(C)[C@@H](O)CCC(C)(C)[C@@H]3C(OC(=O)CCN(C)C)[C@H](OC(C)=O)[C@@]2(C)O1.Cl (stereo partly drawn) [NKH477, N,N-dimethyl-(3R,4aR,5S,6aS,10S,10aR,10bS)-5-(acetyloxy)-3-ethenyldodecahydro-10,10b-dihydroxy-3,4a,7,7,10a-pentamethyl-1-oxo-1H-naphtho[2,1-b]pyran-6-yl ester β-alanine hydrochloride]
[1]
  effect on histamine-evoked Ca2+ signals: mimicked the effect of isoproterenol

## Cn1c(=O)c2c(ncn2C)n(C)c1=O [caffeine]
[2]
  increase in [Ca2+]i evoked by the substance itself: A lack of response

## CS(=O)(=O)NC(=O)CCC/C=C\C[C@H]1C(=O)C[C@@H](O)[C@@H]1/C=C/[C@@H](O)COc1ccccc1 [sulprostone, Sulprostone]
[2]
  increase in [Ca2+]i evoked by the substance itself: also evoked an increase in [Ca^2+]i

## Nc1ncnc2c1nc(Br)n2[C@@H]1O[C@@H]2COP(=O)(O)O[C@H]2[C@H]1O [8-Br-cAMP]
[1]; pre-treatment 20 min, histamine 10 μM, n = 6
  pIC50 for inhibition of histamine-evoked Ca2+ signals: 3.32 ± 0.16

## Cl.Cl.O=S(=O)(NCCNCC=Cc1ccc(Br)cc1)c1cccc2cnccc12 [H89, N-[2-[[3-(4-bromophenyl)-2-propenyl]amino]ethyl]-5-isoquinolinesulfonamide dihydrochloride]
[1]; histamine 10 μM, n = 9
  effect on the inhibition of histamine-evoked Ca2+ signals by a maximally effective concentration of isoproterenol: had no significant effect
  effect on the sensitivity to isoproterenol of histamine-evoked Ca2+ signals: significantly reduced the sensitivity to isoproterenol
